Laboratory results published in patent US7879853B2, “4,6-disubstituted pyrimidines and their use as protein kinase inhibitors” (Bayer Schering Pharma AG, priority 2004, dated 2011).

Key:
[1] = biological target: T1, Akt1 (full-length Akt1, inactive) (Homo sapiens, UniProt P31749); assay: Biochemical Akt1 (inactive) assay (full-length Akt1), IMAP, PDK1-dependent activation; conditions: activation by PDK1 with PIP3 vesicles, 50 μM ATP, 60 min. at room temperature; read-out: Inhibition of Akt1 activation (full-length Akt1, inactive): IC50
T1 construct: recombinant full-length human Akt1 a containing N-terminal His6 tag; His6 (N); purchased Upstate, UK #14-279; host or cells: baculovirus infected Sf21 insect cells
T1 sequence (P31749 whole entry): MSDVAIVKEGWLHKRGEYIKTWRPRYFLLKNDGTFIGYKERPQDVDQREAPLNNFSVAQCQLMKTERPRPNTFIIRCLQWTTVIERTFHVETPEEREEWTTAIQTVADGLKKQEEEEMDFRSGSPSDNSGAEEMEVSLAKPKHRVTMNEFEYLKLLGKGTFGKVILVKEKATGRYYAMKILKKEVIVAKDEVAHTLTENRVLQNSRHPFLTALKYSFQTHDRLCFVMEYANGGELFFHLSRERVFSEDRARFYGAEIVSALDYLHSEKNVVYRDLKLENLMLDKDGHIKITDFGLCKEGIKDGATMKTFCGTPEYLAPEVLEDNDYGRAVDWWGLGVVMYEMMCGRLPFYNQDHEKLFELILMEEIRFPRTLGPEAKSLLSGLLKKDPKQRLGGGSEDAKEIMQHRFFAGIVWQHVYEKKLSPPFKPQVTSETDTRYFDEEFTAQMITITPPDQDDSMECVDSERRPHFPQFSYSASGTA
Experimental: The enzyme is purified using Ni2+/NTA-agarose (Upstate, UK; #14-279).
The enzyme is purified using Ni2+/NTA-agarose.
PDK1-dependent activation and subsequent enzymatic activity of Akt1: Activity of purified human Akt1 is routinely measured in an assay in which the enzyme is first activated by PDK1 in the presence of phosphatidylinositol-3,4,5-triphosphate (PIP3). Once activated, Akt1-dependent phosphorylation of a fluorescence labelled peptide substrate is measured by fluorescence polarisation using the IMAP technology (Molecular Devices).
The phospholipids are prepared as follows: 5 mg DOPC/DOPS are solved in 200 μl 10 mM Tris (pH 7.4) and 300 μg PIP3 are resuspended in 950 μl 10 mM Tris (pH 7.4) by pipetting. 950 μl solved PIP3 are mixed with 50 μl solved DOPC/DOPS and incubated for 2 h at a temperature below 20° C. Then the mixture is subjected to sonification for 30 min. at max. power until a translucent phopholipid vesicle preparation is obtained. Aliquots of the vesicle suspension are frozen at −80° C. until needed, likewise the solved DOPC/DOPS.
Assays are performed in 384-well plates. Incubations are carried out for 60 min. at room temperature. The reaction buffer mixture contains in a final volume of 25 μl: 10 mM Tris pH 7.4, 10 mM MgCl2. 1 mM DTT, and 0,1 mg/ml BSA. In contrast the activation buffer contains: 50 ng/well Akt1, 20 ng/well PDK1, 1.25 μM peptide substrat, 50 μM ATP, and phospholipid vesicles (1:20). Test compounds are added from stock solutions in DMSO before activation of Akt1 by PDK1. After the incubation the beads (IMAP binding reagent; Molecular Devices; 1:167) are added and the fluorescence polarization is measured (excitation 485 nm, emission 530 nm). The analysis of the data is performed using a biostatistical program.

MCF7 cells = assay: Cellular proliferation/cytotoxicity assay (Alamar Blue), MCF7; type: cell-based; conditions: Homo sapiens; MCF7, 48 hours, Alamar Blue (Resazurin); read-out: Anti-proliferative/cytotoxic activity: IC50 MCF7
Experimental: The anti-proliferative activity of the compounds as described herein, is evaluated using MCF7 and MDA-MB-468 (ATCC HTB-22 and HTB-132) cell lines and the Alamar Blue (Resazurin) cell viability assay (O'Brien et al. Eur J Biochem 267, 5421-5426, 2000). Resazurin is reduced to the fluorescent rescrufin by cellular dehydrogenase activity, correlating with viable, proliferating cells. Test compounds are dissolved as 10 mM solutions in DMSO and subsequently diluted. MCF7 or […] cells were seeded into 96 well flat bottom plates at a density of 10000 cells/well (MCF7) or 5000 cells/well (MDA-MB-468) in a volume of 200 μl/well. 24 hours after seeding, 1 μl each of the compound dilutions are added into each well of the 96 well plates. Each compound dilution is tested as at least as duplicates. Wells containing untreated control cells were filled with 200 μl DMEM containing 0.5% v:v DMSO. The cells are then incubated with the substances for 48 hours at 37° C. in a humidified atmosphere containing 5% carbon dioxide. To determine cell viability, 20 μl of a Resazurin solution (Sigma; 90 mg/l) are added. After 4 hours incubation at 37° C. the fluorescence is measured at an extinction of 544 nm and an emission of 590 nm (Wallac Victor2; Perkin Elmer, USA). For the calculation of the cell viability the emission value from untreated cells is set as 100% viability and the emission rates of treated cells are set in relation to the values of untreated cells. Viabilities are expressed as % values. The corresponding IC50 values of the compounds for cytotoxic activity are determined from the concentration-effect curves by means of non-linear regression. The analysis of the data is performed using a biostatistical program (GraphPad Prism, USA).

- IC50 [1]: ≤ 4.4 µM
SMILES: CC(C)(N)c1ccc(C(=O)Nc2ccc(Nc3cc(-c4cccc5c4oc4ccccc45)ncn3)cc2)cc1 [Compound 69, 4-(1-Amino-1-methyl-ethyl)-N-[4-(6-dibenzofuran-4-yl-pyrimidin-4-ylamino)-phenyl]-benzamide trifluoracetate]
- IC50 (MCF7 cells): ≤ 16.6 µM
